The values below come from ChEMBL document CHEMBL2074296, “Kinetic analysis of hepatobiliary transport of organic anions in Eisai hyperbilirubinemic mutant rats” (J Pharmacol Exp Ther, 1993).

Data set [1] addresses T1, ATP-binding cassette sub-family C member 2 (Rattus norvegicus, UniProt Q63120). Kind of data set: TP_TRANSPORTER: biliary excretion in SD rat. The following applies: in vivo. Type of data set: functional, organism-based, Sprague-Dawley, Bile.
Data set [2] addresses T1, ATP-binding cassette sub-family C member 2. Kind of data set: TP_TRANSPORTER: biliary excretion in EHBR rat. Type of data set: functional, organism-based, Bile. The following applies: in vivo.

T1 sequence (Q63120 whole entry): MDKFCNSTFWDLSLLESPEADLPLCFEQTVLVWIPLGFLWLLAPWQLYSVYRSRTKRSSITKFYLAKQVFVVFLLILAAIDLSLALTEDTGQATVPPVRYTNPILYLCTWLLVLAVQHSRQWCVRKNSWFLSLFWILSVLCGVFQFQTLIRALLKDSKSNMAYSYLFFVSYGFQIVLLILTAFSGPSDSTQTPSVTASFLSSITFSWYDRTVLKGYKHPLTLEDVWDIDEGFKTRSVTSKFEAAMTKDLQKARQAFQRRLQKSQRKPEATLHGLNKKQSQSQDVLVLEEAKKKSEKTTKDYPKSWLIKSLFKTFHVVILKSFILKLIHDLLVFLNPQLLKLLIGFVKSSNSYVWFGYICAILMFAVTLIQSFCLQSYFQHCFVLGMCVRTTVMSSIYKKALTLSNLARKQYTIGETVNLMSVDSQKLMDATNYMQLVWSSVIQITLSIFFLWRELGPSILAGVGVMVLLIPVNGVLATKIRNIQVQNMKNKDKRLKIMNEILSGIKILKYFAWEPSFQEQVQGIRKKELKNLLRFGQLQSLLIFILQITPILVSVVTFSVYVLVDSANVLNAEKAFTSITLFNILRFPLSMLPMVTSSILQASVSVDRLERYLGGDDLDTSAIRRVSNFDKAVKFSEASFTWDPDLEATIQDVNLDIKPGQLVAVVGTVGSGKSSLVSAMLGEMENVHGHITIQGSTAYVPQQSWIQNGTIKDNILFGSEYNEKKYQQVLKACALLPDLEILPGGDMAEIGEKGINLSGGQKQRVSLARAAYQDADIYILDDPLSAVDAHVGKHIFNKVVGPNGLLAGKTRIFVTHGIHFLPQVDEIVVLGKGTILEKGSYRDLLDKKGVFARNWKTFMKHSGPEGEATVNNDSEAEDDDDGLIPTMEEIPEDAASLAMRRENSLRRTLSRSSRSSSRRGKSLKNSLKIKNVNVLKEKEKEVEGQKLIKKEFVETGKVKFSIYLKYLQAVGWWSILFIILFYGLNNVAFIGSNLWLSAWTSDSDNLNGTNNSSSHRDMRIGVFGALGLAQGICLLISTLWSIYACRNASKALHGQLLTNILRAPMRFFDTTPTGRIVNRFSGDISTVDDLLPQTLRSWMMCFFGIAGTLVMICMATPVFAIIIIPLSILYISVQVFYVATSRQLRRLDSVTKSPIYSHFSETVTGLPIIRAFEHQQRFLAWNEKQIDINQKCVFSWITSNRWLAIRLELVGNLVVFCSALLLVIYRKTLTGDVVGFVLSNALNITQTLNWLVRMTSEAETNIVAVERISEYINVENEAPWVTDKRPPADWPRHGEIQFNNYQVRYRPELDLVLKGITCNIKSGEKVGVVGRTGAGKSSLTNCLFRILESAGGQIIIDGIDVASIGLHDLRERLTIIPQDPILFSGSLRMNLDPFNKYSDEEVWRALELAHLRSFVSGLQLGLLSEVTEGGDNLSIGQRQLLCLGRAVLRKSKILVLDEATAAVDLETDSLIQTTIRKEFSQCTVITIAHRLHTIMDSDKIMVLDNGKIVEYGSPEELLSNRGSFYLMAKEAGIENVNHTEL

`CO/N=C(\C(=O)N[C@@H]1C(=O)N2C(C(=O)O)=C(CSc3nc(C)c(CC(=O)O)s3)CS[C@H]12)c1csc(N)n1` [CEFODIZIME]: the Activity entry in data set [1] and in data set [2] was “substrate [+]” in each case.

For the molecule `O=C1OC(c2ccc(OS(=O)(=O)O)cc2)(c2ccc(OS(=O)(=O)O)cc2)c2c(Br)ccc(Br)c21` [DIBROMOSULFOPHTHALEIN], the Activity result in data set [1] and in data set [2] was “substrate [+]” throughout.

With `CC1(C)C(/C=C/C=C/C=C/C=C2/N(CCCCS(=O)(=O)[O-])c3ccc4ccccc4c3C2(C)C)=[N+](CCCCS(=O)(=O)[O-])c2ccc3ccccc3c21.[Na+]` [INDOCYANINE GREEN], the Activity entry in data set [1] and in data set [2] was “substrate [+]” throughout.
